Laboratory results reported in ChEMBL document CHEMBL1770129, “Total synthesis of solamargine” (Bioorg Med Chem Lett, 2011).

Columns and labels:
[1] = Cytotoxicity against human U87 cells by MTT assay; format: functional, cell-based, U-87MG ATCC; settings: U-87 MG
HepG2 = assay: Cytotoxicity against human HepG2 cells by MTT assay; format: functional, cell-based
[2] = Cytotoxicity against human HL-7702 by MTT assay; settings: L02
HeLa = assay: Cytotoxicity against human HeLa cells by MTT assay; format: functional, cell-based
MCF7 = assay: Cytotoxicity against human MCF7 cells by MTT assay; format: functional, cell-based
H9c2 = assay: Cytotoxicity against rat H9c2 cells by MTT assay; format: cell-based
HCT-116 = assay: Cytotoxicity against human HCT116 cells by MTT assay; format: functional, cell-based
A549 = assay: Cytotoxicity against human A549 cells by MTT assay; format: functional, cell-based
K562 = assay: Cytotoxicity against human K562 cells by MTT assay; format: functional, cell-based

C[C@@H]1CC[C@@]2(NC1)O[C@H]1C[C@H]3[C@@H]4CC=C5C[C@@H](O[C@@H]6O[C@H](CO)[C@@H](O[C@@H]7O[C@@H](C)[C@H](O)[C@@H](O)[C@H]7O)[C@H](O)[C@H]6O[C@@H]6O[C@@H](C)[C@H](O)[C@@H](O)[C@H]6O)CC[C@]5(C)[C@H]4CC[C@]3(C)[C@H]1[C@@H]2C [SOLAMARGINE]
IC50 [1]: 3.2 µM | IC50 (HepG2): 2.5 µM | IC50 [2]: 13.5 µM | IC50 (HeLa): 6 µM | IC50 (MCF7): 2.1 µM | IC50 (H9c2): > 20 µM | IC50 (HCT-116): 3.8 µM | IC50 (A549): 8 µM | IC50 (K562): 5.2 µM
